Data: PubChem BioAssay (NCI)
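Protocol summary: plate cells (96-well), add compound at 5 concentrations, incubate 48 h, interpolate endpoints linearly. At the GI50, growth is halved. Definition used: TGI = concentration required for complete inhibition of growth.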

How the values were obtained:
Assay in all cases: DTP human tumour cell line panel, 48 h
HCT-116 colon = test system: HCT-116 colon
HOP-62 NSCLC = test system: HOP-62 NSCLC
HT29 colon = test system: HT29 colon
NCI-H522 lung = test system: NCI-H522 lung
SNB-75 CNS = test system: SNB-75 CNS
SR leukemia = test system: SR leukemia
TK-10 renal = test system: TK-10 renal
U251 CNS = test system: U251 CNS
HOP-92 NSCLC = test system: HOP-92 NSCLC
NCI-H226 lung = test system: NCI-H226 lung

SMILES	TGI (HCT-116 colon) [µM]	TGI (HOP-62 NSCLC) [µM]	TGI (HT29 colon) [µM]	TGI (NCI-H522 lung) [µM]	TGI (SNB-75 CNS) [µM]	TGI (SR leukemia) [µM]	TGI (TK-10 renal) [µM]	TGI (U251 CNS) [µM]	TGI (HOP-92 NSCLC) [µM]	TGI (NCI-H226 lung) [µM]	GI50 (HCT-116 colon) [µM]	GI50 (HOP-62 NSCLC) [µM]	GI50 (HOP-92 NSCLC) [µM]	GI50 (HT29 colon) [µM]	GI50 (NCI-H226 lung) [µM]	GI50 (NCI-H522 lung) [µM]	GI50 (TK-10 renal) [µM]	GI50 (U251 CNS) [µM]	GI50 (SNB-75 CNS) [µM]	GI50 (SR leukemia) [µM]
COc1ccc(C(=CCC(C)C2CCC3[C@@H]4C(OC(C)=O)CC5CC(OC(C)=O)CC[C@]5(C)C4CC(OC(C)=O)[C@]23C)c2ccc(OC)cc2)cc1 (stereo partly specified)	> 100	> 100	> 100	> 100	> 100	77.5	> 100	> 100												
CCCC(O)[C@@]1(CC)CC(C)C(O)(C2(C)C[C@H](C)[C@@H](C(CC)C(=O)C(C)[C@@H](O)[C@H](C)C3OC(O)(C(CC)C(=O)O)[C@@H](C)C(O)C3CC)O2)O1 (stereo partly specified)	1.6	2.3	2.09	0.537	2.18		6.74	1.82	1.75	2.99										
CC(=O)C1(C(=O)C(=[N+]=[N-])S(=O)(=O)c2ccccc2)CC1	> 100	> 100	> 100	> 100	> 100	> 100	> 100	> 100		> 100										
Cc1ccc(-n2nc(C(OC3OC(CO)C(O)C(O)C3O)C(O)CO)c3nc4cc(C)c(C)cc4nc32)cc1 (stereo unspecified)	> 100	> 100	> 100	> 100	> 100		> 100	> 100												
Cc1nc2ccncc2[nH]1	> 100	> 100	> 100		> 100	> 100	> 100	> 100		> 100										
O=C(O)c1ccccc1NCn1nc(-c2ccccc2O)oc1=S	54.1	> 100	> 100	> 100			> 100	> 100	94.6	> 100	26	39	30.4	34.9	86.6	> 100	> 100	48.3		
CCOC(=O)C(Cc1ccc(N=NN(C)C)cc1)NC(=O)CC1c2ccccc2-c2ccccc21 (stereo unspecified)	> 100	> 100	> 100	> 100	> 100	> 100	> 100	> 100		> 100										
CCOC(=O)c1cn(C)c2c(OC)c3ccccc3c(OC)c2c1=O	38.5	82.7	> 100	> 100	> 100	88.6	62	55.3		57.1	19.6	33.3		64.3	23.8	> 100	30.1	20.3	> 100	28.5
CC1CCCP(=O)(c2ccccc2)CCC1 (stereo unspecified)		> 100	> 100		> 100		> 100	> 100												
COC(=O)C1CCC(C)CC1=O (stereo unspecified)	> 100	> 100	> 100	> 100	> 100		> 100	> 100	> 100											
O=C1c2cccc3c(N4CCOCC4)ccc(c23)C(=O)N1CCN1CCN(CCCCCN2CCN(CCN3C(=O)c4cccc5c(N6CCOCC6)ccc(c45)C3=O)CC2)CC1	> 100	> 100	> 100		> 100		> 100	> 100	> 100	> 100	33.8	52.3	76.6	58	87.3		> 100	> 100	> 100	
COc1ccccc1/C=C(\NC(=O)c1ccccc1)c1nc2ccc(Cl)cc2[nH]1	> 100		> 100	49.5	70.7		73.7	> 100	56.8	58										
COc1ccc(N(CC(=O)O)N=O)cc1	> 100	> 100	> 100	> 100		> 100	> 100	> 100	> 100	> 100										
Cc1ccc(-n2c3nc(=O)n(C)c(=O)c-3nc3ccccc32)c(C)c1	24	> 100	11.7	29	26.7		27.2	32.1		30.7										
O=C1C=CC2(CCC23C=CC(=O)O3)O1 (stereo unspecified)	> 100	> 100	> 100	> 100	> 100		> 100	> 100		> 100										
CN(C)C1C(=O)C(C(N)=O)=C(O)C2(O)C(=O)C3=C(O)c4c(O)cccc4C(C)(O)C3CC12.[Cl][Sb]([Cl])[Cl] (stereo unspecified)	12.2	15.5	12.2	4.1		7.36	14.3		7.61	22	3.33	4.66	2.56	3.79	3.33	1.86	3.85			2.88
NC1=NC(c2ccccc2Cl)c2c(n[nH]c2N)N1 (stereo unspecified)	> 100	> 100		> 100	> 100		> 100	> 100	> 100	> 100	7.77	80.1	18.2		38.4	19.6	> 100	28	48	
Cc1ccc(S(=O)(=O)Nc2ccccc2C(C)(C)C)cc1	29.1	45.9	31.9		> 100		> 100	43.3		56.3										
COS(=O)c1cc(Cl)cc(Cl)c1OC(=O)CSSCC(=O)Oc1c(Cl)cc(Cl)cc1S(=O)OC (stereo unspecified)			96.9	30.2	80.1		84	20.6	53.2											
C1CN2CCO[SiH](O1)OCC2	> 100		> 100	> 100	> 100	> 100	> 100	> 100		> 100										
O=C1C=CC2(O)OCC3C=C4O[C@@H]5OC6(CCCCC6)O[C@@H]5C4[C@@H]2[C@@H]13 (stereo partly specified)	32.1	> 100	50.9	27.9	> 100		48.6	> 100	33.4	> 100										

SMILES	TGI (HCT-116 colon) [µM]	TGI (HOP-62 NSCLC) [µM]	TGI (HT29 colon) [µM]	TGI (NCI-H522 lung) [µM]	TGI (SNB-75 CNS) [µM]	TGI (SR leukemia) [µM]	TGI (TK-10 renal) [µM]	TGI (U251 CNS) [µM]	TGI (HOP-92 NSCLC) [µM]	TGI (NCI-H226 lung) [µM]	GI50 (HCT-116 colon) [µM]	GI50 (HOP-62 NSCLC) [µM]	GI50 (HOP-92 NSCLC) [µM]	GI50 (HT29 colon) [µM]	GI50 (NCI-H226 lung) [µM]	GI50 (NCI-H522 lung) [µM]	GI50 (TK-10 renal) [µM]	GI50 (U251 CNS) [µM]	GI50 (SNB-75 CNS) [µM]	GI50 (SR leukemia) [µM]
COc1ccc(/C=C/C(=O)c2c(-c3ccccc3)nn(C)c(=O)c2N2CCCCC2)cc1	23.6		35.9	27.3			> 100	30.1	16.8											
COC(=O)[C@]12CC[C@@H](C)[C@H](C)[C@@H]1C1=CC[C@@H]3[C@@]4(C)C(C=O)=C[C@@](C)(COS(C)(=O)=O)C4=CC[C@@]3(C)[C@]1(C)CC2	0.321	1.17	0.37	0.371	0.61		0.512	0.606	0.55	0.635	0.16	0.303	0.197	0.144	0.232	0.178	0.211	0.23	0.161	
CCN1C(=O)N(CC)C2C1NC(=S)N2/N=C/C=C/c1ccccc1 (stereo unspecified)	> 100	> 100	> 31.8	4.45		> 100	> 100	> 100		> 100	0.106			0.111	0.383	0.0486	3.66	0.302		0.0444
Cc1nc2sccn2c1C(=O)NNC(N)=S	> 100	> 100	> 100	> 100		> 100	> 100	> 100	> 100	> 100										
CCOC(=O)C1=C(C)N(NC(N)=O)C2(N)N(NC(N)=O)C(C)=C(C(=O)OCC)C12C#N (stereo unspecified)	> 100	> 100	> 100	> 100	> 100	> 100		> 100		> 100										
N#Cc1ccccc1Sc1ccccc1N		> 100	> 100			> 100	> 100	> 100	> 100	71.6										
Nc1c(C(=O)Nc2ccccc2)sc2nc3c(cc12)C(=O)CCC3	> 100	> 100		1.29	> 88.7	> 100	> 100	> 41.9		> 100	0.512	0.745		0.354	3.91	0.215	0.807	0.486	0.494	0.533
CCOC(=O)C1C(c2ccc(Br)cc2)N(Cc2ccccc2)C(c2ccc(Br)cc2)C(C(=O)OC)S1(=O)=O (stereo unspecified)	> 100	> 100	> 100	> 100	57.3	> 100	> 100			> 100										
N#CC(C(=O)Nc1ccccc1)C1=C(Cl)C(=O)c2ccccc2C1=O (stereo unspecified)	27.3	33.6	67.5	29.3			36.7	61.5	27.9	30.8										
NC1CCC2(O)c3ccccc3C2C1 (stereo unspecified)	> 100	> 100	> 100	> 100	> 100	> 100	> 100	> 100		> 100										
[O-][n+]1c2cccc(O)c2[n+]([O-])c2cccc(O)c21	> 100	> 100	> 100	> 100	> 100		> 100	> 100	97.5											
OC1=CN=C(c2ccccc2)Oc2ccccc21	> 100	> 100	> 100		> 100		> 100	> 100	> 100	97.5										
CCC(Oc1ccc(OC)c2c1C(=O)CCC2)C(=O)O (stereo unspecified)		> 100	> 100	> 100	> 100	> 100	> 100	> 100		> 100										
CN1CCCc2nc3ccccc3n2C1	> 100	> 100	> 100	> 100	> 100		> 100	> 100	> 100	> 100										
C[C@]12CCc3nc(Nc4ccc(O)cc4)sc3C1=CC[C@@H]1[C@@H]2CC[C@]2(C)/C(=N/NC(N)=S)CC[C@@H]12	2.57	4.21			2.46	> 100	4.35	2.6	4.2	4.05	1.15	1.7	1.71		1.71		2.13	1.29	0.68	0.454
CC(C)(C)O/N=C/c1cc(NC(=S)c2ccccc2)ccc1Cl	29.4	37.1	29.2	28.2		47.2	31.1	45.5	34.4	34.7										
O=C(Nc1ccccc1C(=O)NC(=O)c1ccccc1NC(=O)c1ccccc1)c1ccccc1	13.5	36.4	12.7		8.87	8.52	25.9	18.8	6.5											
Oc1cn(-c2ccc(Cl)cc2)nc1-c1n[nH]c(=S)n1-c1ccc(F)cc1	25.5	54.6	> 100	64.8		> 100	> 100	> 100	> 100	90.2	11.6	22.7	32.2	43.2	26.6	18	28.1	15.8		
COCOC1CCCC[C@@]1(OCCOCCO[C@@]1(c2ccccc2)CCCC[C@H]1OCOC)c1ccccc1 (stereo partly specified)	> 100	> 100	> 100	> 100	84.3	> 100	> 100	> 100		> 100										
CCCCCCCCCCCCCCCC(=O)OCC1OC(n2cc(F)c(=O)[nH]c2=O)C(NC(=O)OCc2ccccc2)C(O)C1O (stereo unspecified)	30.4		36.2		37.5		43	31.4	31.5											
